Data set [1] deals with Klebsiella pneumoniae. Nature of the data set: Oral curative dose (CD50) in infected mice, Klebsiella pneumoniae. The format is in vivo. The following applies: Maus, p.o., Erreger Klebsiella pneumoniae, dose at which 50% of the tested mice survive. The text has this: (§1) Die orale antimikrobielle Wirksamkeit der erwähnten Produkte kann anhand von in-vivo-Versuchen an der Maus nachgewiesen werden. Im nachstehenden bedeutet die kurative Dosis (CD50, p.o., mg/kg) diejenige perorale Dosis, bei der 50% der getesteten Mäuse überleben.
(§2) Ergebnis (CD50, p.o. mg/kg)

Data set [2] in a line: in vivo. The following applies: mouse, po.
Data set [3] deals with Streptococcus pyogenes. Put plainly: Oral curative dose (CD50) in infected mice, Streptococcus pyogenes. The format is in vivo. The following applies: Maus, p.o., Erreger Streptococcus pyogenes, dose at which 50% of the tested mice survive.
Source text: as §1, §2

Data set [4] relates to Escherichia coli. Put plainly: Oral curative dose (CD50) in infected mice, Escherichia coli. The format is in vivo. Particulars: Maus, p.o., Erreger Escherichia coli, dose at which 50% of the tested mice survive.
Source text: as §1, §2

For data set [5], the system named is Serratia marcescens. Nature of the data set: Oral curative dose (CD50) in infected mice, Serratia marcescens. The data set is classed as in vivo. Particulars: Maus, p.o., Erreger Serratia marcescens, dose at which 50% of the tested mice survive.
Source text: as §1, §2

This passage reports ED50 and LD50 results from patent publication EP0075104A2, “Cephalosporin derivatives, process for their preparation, pharmaceutical compositions containing them and intermediates” (F. HOFFMANN-LA ROCHE & CO. Aktiengesellschaft, priority 1981, dated 1983).

Regarding `CO/N=C(\C(=O)N[C@@H]1C(=O)N2C(C(=O)OCOC(=O)C(C)(C)C)=C(CSc3nnc(C(=O)OC)n3C)CS[C@H]12)c1csc(N)n1` [Produkt A, Methylen-(6R,7R)-7-[(Z)-2-(2-Amino-4-thiazolyl)-2-(methoxyimino)-acetamido]-3-[[[5-(methoxycarbonyl)-4-methyl-4H-1,2,4-triazol-3-yl]thio]methyl]-8-oxo-5-thia-l-azabicyclo-[4.2.0]oct-2-en-2-carboxylat-pivalat], the 50% effective dose (ED50) in data set [1] is 4.4 mg/kg; in data set [3] it was 1.8 mg/kg; in data set [4] it was 0.11 mg/kg. This compound had a median lethal dose (LD50) at 24 h in data set [2] above 5000 mg/kg.
As to `CO/N=C(\C(=O)N[C@@H]1C(=O)N2C(C(=O)OCOC(=O)C(C)(C)C)=C(CSc3nc(C(=O)OC)n(C(C(=O)OCOC(=O)C(C)(C)C)c4ccccc4)n3)CS[C@H]12)c1csc(N)n1` (stereo partly drawn) [Produkt B, Methylen-(6R,7R)-7-C(Z)-2-(2-Amino-4-thiazolyl)-2-(methoxyimino)-acetamido]-3-[[[5-(methoxycarbonyl)-1-[(DL)-α-[[(pivaloyloxy)-methoxy]carbonyl]benzyl]-1H-1,2,4-triazol-3-yl]thio]methyl]-8-oxo-5-thia-1-azabicyclo-[4.2.0]oct-2-en-2-carboxylat-pivalat], the ED50 was above 25 mg/kg in data set [5], above 25 mg/kg in data set [1], above 6 mg/kg in data set [3] and 5.5 mg/kg in data set [4].
Turning to `CO/N=C(\C(=O)N[C@@H]1C(=O)N2C(C(=O)OCOC(=O)C(C)(C)C)=C(CSc3nc(C(=O)OC)n(-c4ccccc4)n3)CS[C@H]12)c1csc(N)n1` [Produkt C, Methylen-(6R,7R)-7-[(Z)-2-(2-Amino-4-thiazolyl)-2-(methoxyimino)-acetamido]3-[[[5-(methoxycarbonyl)-1-phenyl-lH-1,2,4-triazol-3-yl]thio]methyl]-8-oxo-5-thia-1-azabicyclo-[4.2.0]oct-2-en-2-carboxylat-pivalat], the ED50 in data set [5] was above 25 mg/kg; in data set [1], above 12 mg/kg; in data set [3], 2.4 mg/kg; in data set [4] it was 1.8 mg/kg. In data set [2], this compound gave a median lethal dose (LD50) at 24 h above 5000 mg/kg.
For `C=CCn1c(SCC2=C(C(=O)OCOC(=O)C(C)(C)C)N3C(=O)[C@@H](NC(=O)/C(=N\OC)c4csc(N)n4)[C@H]3SC2)nnc1C(=O)OC` [Produkt D], in that order: 3.6 mg/kg, above 12 mg/kg, 1.3 mg/kg, 0.11 mg/kg and above 5000 mg/kg.
`CCCCn1c(SCC2=C(C(=O)OCOC(=O)C(C)(C)C)N3C(=O)[C@@H](NC(=O)/C(=N\OC)c4csc(N)n4)[C@H]3SC2)nnc1C(=O)OC` [Produkt E, Methylen-(6R,7R)-[(Z)-(2-Amino-4-thiazolyl)-2-(methoxyimino)-acetamido]-3-[[[4-(n-butyl)-5-(methoxycarbonyl)-4H-1,2,4-triazol-3-yl]-thio]methyl]-8-oxo-5-thia-1-azabicyclo[4.2.0]-oct-2-en-2-carboxylat-pivalat]: the ED50 was 37 mg/kg in data set [5], above 12 mg/kg in data set [1], 3.5 mg/kg in data set [3] and 1.1 mg/kg in data set [4].

The ED50 is the dose that gives a 50% effect, or the effect in half of the subjects. The low end stands for an effect at a small dose, the high end for a need for a large dose. By LD50 is commonly meant the dose expected to kill half of the subjects tested. Low readings indicate greater toxicity, high ones lower toxicity.
